Reference: ChEMBL document CHEMBL3507680, “University of Dundee, Gates Library screen for HepG2 cell viability”

Experiment: Human HepG2 cell viability assay in 384 well format
Assay type: toxicity, cell-based
Parameters: dose 125 nL, time 70.5 hour; cytotoxicity at 70.5 h: concentration not given beside the values
Details: HepG2 cells, read-out: Inhibition

| Structure (SMILES) | cytotoxicity at 70.5 h [%] |
| --- | --- |
| CCN1CCN(Cc2nc(CC(C)C)no2)CC1 | 19.9 |
| COc1cccc(CNCc2c(C)nn(C)c2N(C)C)c1 | 0.816 |
| O=C(c1cccc2cccnc12)N1CCCC(n2ccnc2)C1 (centres undefined) | -5.33 |
| Cc1cc(NC(=O)CN2CCCC(Cn3nc(C)nc3C)C2)n(C)n1 (centres undefined) | -2.11 |
| CCc1nc(C2CCCN2CC(=O)NCCOc2ccccc2)no1 (centres undefined) | 11.4 |
| Cc1cc(C)n(CC2CN(Cc3ccccn3)CCO2)n1 (centres undefined) | 1.96 |
| COCCOc1cccc(CNCc2c(C)nn(C)c2N(C)C)c1 | -2.1 |
| Cn1cc(Cl)cc1C(=O)N1CCCN(Cc2nccn2C)CC1 | -1.83 |
| Cc1noc(C)c1CNC(=O)N(C)C1CCN(c2ccccc2)C1=O (centres undefined) | -2.2 |
| CCn1ccnc1CN1CCN(CC(=O)NC2CCOCC2)CC1 | 25.6 |
| COCCCNC(=O)Nc1ccc(-n2cncn2)c(C(F)(F)F)c1 | -5.91 |
| CN(C(=O)NCCN1CCOCC1)C1CCN(c2ccccc2)C1=O (centres undefined) | -14.1 |
| Cc1ccccc1-c1noc(CN2CCc3cncnc3C2)n1 | -11.1 |
| Cc1ccc(NC2CCN(C(=O)CCn3nc(C)cc3C)CC2)nn1 | -14.3 |
| O=C(NCCCNc1ccc(C(F)(F)F)cn1)c1ccc(F)cc1 | -18.9 |
| COc1ccc(C(=O)NCCCNc2ccc(C(F)(F)F)cn2)cc1 | -17.2 |
| Cc1ccc(C(=O)NCc2cccnc2N(C)C)o1 | -12.1 |
| Cc1cc(C(=O)NCc2cccnc2N(C)C)c(C)o1 | 14.3 |
| CCOc1ccc(CC(CNC(=O)c2ccco2)C(N)=O)cc1 (centres undefined) | -6.1 |
| COc1ccccc1CC1CCCN(CC(=O)NC2CC2)C1 (centres undefined) | -8.21 |
| CNC(=O)NC(=O)CN1CCCC(Cc2ccccc2OC)C1 (centres undefined) | -6.62 |

| Structure (SMILES) | cytotoxicity at 70.5 h [%] |
| --- | --- |
| CC(C)c1nnc2n1CCN(C(=O)c1ccc(OCC3CC3)cc1)C2 | -6.55 |
| Cc1cc(NC(=O)CN2CCn3c(nnc3C(C)C)C2)on1 | -0.984 |
| CC(C)c1nnc2n1CCN(C(=O)c1ccc(S(C)(=O)=O)cc1)C2 | -5.36 |
| Cc1nc(CN2CCCC(N(C)Cc3nc(C)c(C)o3)C2)no1 (centres undefined) | -2.87 |
| Cc1nc(CN2CCCN(CC(=O)Nc3ccncc3)CC2)no1 | 5.91 |
| Cc1nc(CN2CCCC(N(C)Cc3cnc(C)s3)C2)no1 (centres undefined) | -1.22 |
| Cc1cc(NC(=O)CN2CCn3c(nnc3-c3ccccc3)C2)no1 | -1.17 |
| Cc1cc(NC(=O)CCN2CCn3c(nnc3C3CC3)C2)no1 | -11.7 |
| CCc1nc(CN2CCOC(CN(C)c3cccnn3)C2)cs1 (centres undefined) | -7.04 |
| Cc1ccccc1-c1noc(CN2CC(n3cccn3)C2)n1 | -5.02 |
| CCOc1ccccc1-c1noc(CN2CCN(CCOC)CC2)n1 | -6.13 |
| CC(Cc1cccs1)C(=O)NCc1cccc(N2CCCC2=O)c1 (centres undefined) | -8.97 |
| O=C(c1cccc2ncccc12)N1CCCN(c2cccnn2)CC1 | -11.1 |
| Cc1cc(C)n(CC2CCCCN2CC(=O)N(C)Cc2ccco2)n1 (centres undefined) | 6.64 |
| CCc1nnc(CN2CCCN(C(=O)c3ccccn3)CC2)o1 | -10.8 |
| CCc1nc(C2CCCN2Cc2nc(Cc3ccccc3)no2)no1 (centres undefined) | -0.88 |
| Cc1ncc(CN2CCOC(CN(C)c3cccnn3)C2)s1 (centres undefined) | -9.59 |
| CCc1noc(CN2CCN(C(=O)c3ccccn3)CC2)n1 | -7.01 |
| COc1ccc(Br)c(C(=O)N2CCCC(c3nc(C)no3)C2)c1 (centres undefined) | -9.43 |
| CC(=O)Nc1nc(C(=O)NC(C)c2ccc(F)c(F)c2)cs1 (centres undefined) | -7.42 |
| CNS(=O)(=O)c1ccc(CNC(=O)NCC2CCC2)cc1 | -8.5 |

| Structure (SMILES) | cytotoxicity at 70.5 h [%] |
| --- | --- |
| CC(=O)Nc1nc(C(=O)NC(C)c2ccc(C#N)cc2)cs1 (centres undefined) | -7.27 |
| Cc1noc(C2CCCN(C(=O)c3cncc(Br)c3)C2)n1 (centres undefined) | -10.8 |
| CCC(O)CN(CC(=O)NC(=O)NC1CC1)c1ccccc1 (centres undefined) | -6.3 |
| CCNC(=O)NC(=O)CN(CC(C)O)c1ccccc1 (centres undefined) | -7.42 |
| CCOC(CC)C(=O)NCc1cccc(N2CCCCC2=O)c1 (centres undefined) | -6.54 |
| O=c1n(CCSCc2ccccc2Cl)nc2ccccn12 | -6.77 |
| Cc1ccc(CSCCn2nc3ccccn3c2=O)cc1 | -1.35 |
| O=C(Cc1ccc2c(c1)CCO2)N1CCCC(n2cccn2)C1 (centres undefined) | -12.1 |
| NS(=O)(=O)c1ccc(CC(=O)N2CCCC(n3cccn3)C2)cc1 (centres undefined) | -7.64 |
| Cc1noc(C2CCCN(C(=O)c3ccc(Cl)cc3F)C2)n1 (centres undefined) | -7.02 |
| O=C(Cc1cccc2cccnc12)N1CCCN(c2cccnn2)CC1 | -11 |
| Cc1nc2ccccc2nc1CN(C)C1CCCN(c2cccnn2)C1 (centres undefined) | 4.32 |
| CN(C)c1ncccc1C(=O)N1CCCN(c2cccnn2)CC1 | -6.59 |
| O=C(c1cccnc1O)N1CCCN(c2cccnn2)CC1 | -9.98 |
| O=C(NCc1ccc(Br)cc1)NCC1CCOC1 (centres undefined) | -10.4 |
| CN(Cc1ncc(C(C)(C)C)o1)CC1CCCN1c1cccnn1 (centres undefined) | 23.4 |
| Cc1cc(NC(=O)C(C)N2CCN(c3nc(C)ns3)CC2)on1 (centres undefined) | 4.54 |
| CCc1nc(CN2CCCN(C(=O)COC(C)C)CC2)cs1 | 2.07 |
| CN(Cc1nnc(C2CC2)o1)CC1CCCN1c1cccnn1 (centres undefined) | -9.18 |
| Cc1nc(CN2CCCN(C(=O)COCC3CC3)CC2)cs1 | -2.01 |
| CCC1CCCN(CC(=O)Nc2oc(C)c3c(C)n[nH]c(=O)c23)C1 (centres undefined) | -9.67 |

| Structure (SMILES) | cytotoxicity at 70.5 h [%] |
| --- | --- |
| COc1ccc(C(=O)N(C)Cc2cc(C)on2)c(OC)c1 | -4.71 |
| O=C(NCCn1nc2ccccn2c1=O)c1cc[nH]n1 | 0.216 |
| O=C(NCCn1nc2ccccn2c1=O)c1cc(C2CC2)[nH]n1 | 2.27 |
| Cn1cnnc1C1CCCN(C(=O)NCCc2ccccn2)C1 (centres undefined) | -4.27 |
| Cn1cnnc1C1CCCN(C(=O)NCc2ccccc2)C1 (centres undefined) | 1.38 |
| CN(Cc1ccsc1)C(=O)CN1CCCC1Cn1cccn1 (centres undefined) | -13.8 |
| CCc1nc(C2CCCN2Cc2nc3ccccc3o2)no1 (centres undefined) | -17.9 |
| CCc1nc(C2CCCN2Cc2nnc(Cc3ccccc3)o2)no1 (centres undefined) | -10.8 |
| CN(Cc1ccco1)C(=O)CN1CCCCC1Cn1cccn1 (centres undefined) | -12.4 |
| Cn1cc(-c2nc(CNCCn3cccn3)cs2)cn1 | 12.5 |
| Cc1n[nH]c(=O)c2c(NC(=O)CN3CCCC(C(F)(F)F)C3)oc(C)c12 (centres undefined) | 15.7 |
| COC(=O)COc1cccc(NS(=O)(=O)c2cc(C(=O)O)cs2)c1 | 10.9 |
| COc1ccc(S(N)(=O)=O)cc1C(=O)N(C)Cc1cc(C)on1 | 24.6 |
| Cc1ccsc1CN(C)Cc1nc2c(cnn2C)c(=O)[nH]1 | -7.29 |
| CC(C)(C)c1cn2nc(N3CCOC(Cn4cncn4)C3)sc2n1 (centres undefined) | -15.9 |
| CC(C)(C)C(O)CN1CCN(C(=O)c2cccc3ncccc23)CC1 (centres undefined) | 20.7 |
| Cn1nc2c(cc1=O)CN(Cc1nnc(-c3ccc(F)cc3)o1)CC2 | -22.9 |
| CCSCCC(=O)NS(=O)(=O)c1ccc2c(c1)OCCO2 | -13.7 |
| O=C(CSc1ccc(F)c(F)c1)NS(=O)(=O)c1ccc2c(c1)OCCO2 | -14 |
| CCc1nc(CN2CCN(C(=O)C3CCCCC3)CC2)cs1 | -12.3 |
| CCc1nc(CN2CCCN(C(=O)c3c(C)noc3C)CC2)cs1 | -12.9 |
